In patent US20080108608A1, “Pyrimidines With Tie2 (Tek) Activity” (ASTRAZENECA AB, priority 2003, published 2008):

Legend:
[1] = target: T1, Tie2 receptor (Homo sapiens, UniProt Q02763); experiment: Cellular Tie2 autophosphorylation assay (Test (b)); format: cell-based; conditions: Ang1 ligand stimulated whole cells, e.g. EA.hy926/B3; read-out: IC50 (μM) Test (b): Inhibition of autophosphorylation of Tie2 receptor tyrosine kinase
T1 construct: natural cell lines or primary cells which are known to express the receptor of choice; endogenous in cells; host or cells: EA.hy926/B3 cells (HUVEC named as an alternative)
Text: b. Cellular Tie2 Autophosphorylation Assay
This assay is based on measuring the ability of compounds to inhibit autophosphorylation of the Tie2 receptor which normally leads to the production of “activated” receptor that in turn initiates the particular signal transduction pathways associated with the receptor function.
Autophosphorylation can be achieved by a number of means. It is known that expression of recombinant kinase domains in baculoviral systems can lead to the production of phosphorylated and activated receptor. It is also reported that over expression of receptors in recombinant cell lines can itself lead to receptor autophosphorylation in the absence of the ligand (Heldin C-H. 1995 Cell: 80, 213-223; Blume-J. P, Hunter T. 2001 Nature: 411, 355-65). Furthermore, there are numerous literature examples in which chimaeric receptors have been constructed. In these cases the natural, external cell surface domain of the receptor has been replaced with that of a domain which is known to be readily dimerised via the addition of the appropriate ligand (e.g. TrkA-Tie2/NGF ligand (Marron, M. B., et al., 2000 Journal of Biological Chemistry: 275:39741-39746) or C-fins-Tie-1/CSF-1 ligand (Kontos, C. D., et al., 2002 Molecular and Cellular Biology: 22, 1704-1713). Thus when the chimaeric receptor expressed in a host cell line and the respective ligand is added, this induces autophosphorylation of the chimeric receptor's kinase domain. This approach has the advantage of often allowing a known (and often easily obtained) ligand to be used instead of having to identify and isolate the natural ligand for each receptor of interest.
Naturally if the ligand is available one can use natural cell lines or primary cells which are known to express the receptor of choice and simply stimulate with ligand to achieve ligand induced phosphorylation. […]

[2] = target: T2, Tie2 receptor tyrosine kinase (Homo sapiens, UniProt Q02763); experiment: In vitro receptor tyrosine kinase inhibition assay (Test (a)), ELISA based; format: biochemical; conditions: recombinant human Tie2 kinase domain
T2 construct: consist of only the intracellular portion C-terminal portion of the respective receptor, within which is found the kinase domain; made in house; host or cells: baculovirus/Sf21 insect cells (or alternative equivalent); used as cleared cell lysate
Method: a. In Vitro Receptor Tyrosine Kinase Inhibition Assay
To test for inhibition of Tie2 receptor tyrosine kinase, compounds are evaluated in a non-cell based protein kinase assay by their ability to inhibit the protein kinase enzyme phosphorylation of a tyrosine containing polypeptide substrate in an ELISA based microtitre plate assay. In this particular case, the assay was to determine the IC50, for three different recombinant human tyrosine kinases Tie2, KDR and Flt.
To facilitate production of the tyrosine kinases, recombinant receptor genes were produced using standard molecular biology cloning and mutagenesis techniques. These recombinant proteins fragments encoded within these genes consist of only the intracellular portion C-terminal portion of the respective receptor, within which is found the kinase domain. The recombinant genes encoding the kinase domain containing fragments were cloned and expressed in standard baculovirus/Sf21 system (or alternative equivalent) […]
Constitutive kinase activity of these recombinant proteins was determined by their ability to phosphorylate a synthetic peptide (made up of a random co-polymer of Glutamic Acid, Alanine and Tyrosine in the ratio of 6:3:1). […]
The immobilised phospho-peptide product of the reaction was detected by immunological methods. […] Following extensive washing with PBS-T, HRP activity in each well of the plate was measured colorimetrically using 22′-Azino-di-[3-ethylbenzthiazoline sulfonate (6)]diammonium salt crystals ABTS (Sigma P4922—prepared as per manufactures instructions) as a substrate incubated for 30-45 minutes to allow colour development, before 100 ul of 1M H2SO4 was added to stop the reaction.
Quantification of colour development and thus enzyme activity was achieved by the measurement of absorbance at 405 nm on a Molecular Devices ThermoMax microplate reader. Kinase inhibition for a given compound was expressed as an IC50 value. […] The range of phosphorylation was calculated from the positive (vehicle plus ATP) and negative (vehicle minus ATP) control values.

T2 sequence (Q02763 770-1124 limits assumed): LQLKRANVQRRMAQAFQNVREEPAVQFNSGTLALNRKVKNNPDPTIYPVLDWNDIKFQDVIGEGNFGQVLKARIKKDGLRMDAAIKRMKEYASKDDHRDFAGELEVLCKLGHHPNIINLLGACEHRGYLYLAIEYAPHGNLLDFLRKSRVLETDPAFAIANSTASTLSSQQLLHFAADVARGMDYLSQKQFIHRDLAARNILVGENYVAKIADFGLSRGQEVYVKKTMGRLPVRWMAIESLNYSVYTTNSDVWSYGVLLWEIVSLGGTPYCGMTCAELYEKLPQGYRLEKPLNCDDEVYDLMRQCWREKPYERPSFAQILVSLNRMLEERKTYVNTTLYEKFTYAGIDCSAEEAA
T1 sequence (Q02763 23-1124): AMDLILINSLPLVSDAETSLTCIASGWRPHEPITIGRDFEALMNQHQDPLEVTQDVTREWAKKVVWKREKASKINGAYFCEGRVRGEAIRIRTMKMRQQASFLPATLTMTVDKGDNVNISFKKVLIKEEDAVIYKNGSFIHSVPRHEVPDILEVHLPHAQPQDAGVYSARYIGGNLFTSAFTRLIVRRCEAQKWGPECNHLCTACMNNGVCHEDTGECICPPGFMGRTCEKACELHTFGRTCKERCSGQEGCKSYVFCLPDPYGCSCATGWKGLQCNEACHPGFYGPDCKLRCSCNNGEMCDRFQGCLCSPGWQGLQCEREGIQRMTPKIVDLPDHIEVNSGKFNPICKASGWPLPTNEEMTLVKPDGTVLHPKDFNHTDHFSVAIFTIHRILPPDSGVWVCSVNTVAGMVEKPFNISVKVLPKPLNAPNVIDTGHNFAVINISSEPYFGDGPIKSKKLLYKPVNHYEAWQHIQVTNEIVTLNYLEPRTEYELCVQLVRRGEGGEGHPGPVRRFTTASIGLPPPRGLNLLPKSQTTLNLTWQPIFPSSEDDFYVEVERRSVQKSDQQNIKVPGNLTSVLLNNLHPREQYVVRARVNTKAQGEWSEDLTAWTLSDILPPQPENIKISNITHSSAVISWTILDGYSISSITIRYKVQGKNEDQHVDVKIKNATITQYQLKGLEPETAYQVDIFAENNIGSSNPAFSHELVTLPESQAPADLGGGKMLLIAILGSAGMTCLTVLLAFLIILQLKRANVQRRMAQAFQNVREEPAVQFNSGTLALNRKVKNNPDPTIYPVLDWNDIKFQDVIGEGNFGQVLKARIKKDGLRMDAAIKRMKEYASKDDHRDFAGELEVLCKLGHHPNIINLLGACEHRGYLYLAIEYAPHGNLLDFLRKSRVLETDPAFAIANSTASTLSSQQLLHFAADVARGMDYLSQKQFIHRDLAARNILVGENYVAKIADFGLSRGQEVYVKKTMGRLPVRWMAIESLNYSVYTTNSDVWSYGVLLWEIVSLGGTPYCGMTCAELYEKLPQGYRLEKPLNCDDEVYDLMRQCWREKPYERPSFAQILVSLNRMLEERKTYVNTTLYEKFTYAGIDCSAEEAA

IC50 [1]	IC50 [2]	SMILES
0.337 µM	19.9 µM	Cc1cc(NC(=O)Nc2cccc(C#Cc3cnc(N)nc3)c2)on1 [Example 19, N-{3-[(2-aminopyrimidin-5-yl)ethynyl]phenyl}-N′-(3-methylisoxazol-5-yl)urea]
2.59 µM	5.7 µM	CC(C)(C)c1cc(NC(=O)Nc2cccc(C#Cc3cnc(NCCN4CCCC4)nc3)c2)no1 [Example 33, N-(5-tert-butylisoxazol-3-yl)-N′-[3-({2-[(2-pyrrolidin-1-ylethyl)amino]pyrimidin-5-yl}ethynyl)phenyl]urea]
3.29 µM	74.9 µM	CC(C)(C)c1nnc(NC(=O)Nc2cccc(C#Cc3cnc(NCCN4CCCC4)nc3)c2)s1 [Example 48, N-(5-tert-butyl-1,3,4-thiadiazol-2-yl)-N′-[3-({2-[(2-pyrrolidin-1-ylethyl)amino]pyrimidin-5-yl}ethynyl)phenyl]urea]
